{"source": "patent US10231980B2", "about": "“Cortexolone 17alpha-benzoate for use in the treatment of tumours” (COSMO TECHNOLOGIES LTD., priority 2014, dated 2019)", "key": {"stimulated PBMC [1]": {"system": "stimulated PBMC", "assay": "IC50 on stimulated (actively dividing) PBMC", "format": "cell-based, human", "procedure": "(§1) The compound toxicity was determined as follow:\n(§2) Therapeutic Index=Safety/Potency=IC50 stimulated PBMC/IC50 cancer cell"}, "LNCaP (AR+)": {"system": "LNCaP (AR+)", "assay": "ATP-dependent proliferation assay with 10 nM DHT, prostate cancer cells (Examples 1, 2)", "format": "cell-based, human", "conditions": "LNCaP, read-out: IC50", "procedure": "(§3) The experiment was performed to test and to define the antitumor activity in vitro of cortexolone 17α-benzoate on LNCaP (AR^+) and PC3 (AR^−), representative of Prostatic cancer cell lines with Androgen receptor positive or negative expression, respectively. The experimental method consisted of: • 1. […] After 24 hrs, 10 nM DHT (dihydrotestosterone) with or without anti-androgen compounds, or DMSO vehicle (negative control) was added to the cultures. • 3.\n(§4) Data from Experiment 1 was fitted through sigmoidal dose response curves and analyzed using Prizm statistical analysis software. […] The results from 2 sets of experiments follow.\nas §3, with “define” for “define the”, “17α-valerate-21-propionate” for “17α-benzoate”, “hours,” for “hrs,”"}, "PC3 (AR−)": {"system": "PC3 (AR−)", "assay": "ATP-dependent proliferation assay with 10 nM DHT, prostate cancer cells (Examples 1, 2)", "format": "cell-based, human", "conditions": "PC3, read-out: IC50", "procedure": "as §3, §4\nas §3, with “define” for “define the”, “17α-valerate-21-propionate” for “17α-benzoate”, “hours,” for “hrs,”"}, "7 cancer cell lines": {"system": "7 cancer cell lines", "assay": "Therapeutic index over a panel of cancer cell lines", "format": "cell-based", "conditions": "average over the cancer cell lines of Table VII", "procedure": "as §1, §2"}, "PC3": {"system": "PC3", "assay": "ATP-dependent cell viability assay (Cell Titer Glo), Example 12", "conditions": "PC3", "excerpt": "(§5) Data shown in Table I were fitted through sigmoidal dose response curves and analyzed using Prizm statistical."}, "MiaPaca2": {"system": "MiaPaca2", "assay": "ATP-dependent cell viability assay (Cell Titer Glo), Example 12", "conditions": "MiaPaca2", "excerpt": "as §5"}, "Panc1": {"system": "Panc1", "assay": "ATP-dependent cell viability assay (Cell Titer Glo), Example 12", "conditions": "Panc1", "excerpt": "as §5"}, "LNCaP": {"system": "LNCaP", "assay": "ATP-dependent cell viability assay (Cell Titer Glo), Example 12", "conditions": "LNCaP", "excerpt": "as §5"}, "HT29": {"system": "HT29", "assay": "MTT colorimetric assay on epithelial intestinal cancer cells", "format": "cell-based", "conditions": "for Therapeutic Index (TI), Resting PBMC: IC50 resting PBMC / IC50 HT29; for Therapeutic Index (TI), Stimulated PBMC: IC50 stimulated PBMC / IC50 HT29"}, "MCF7": {"system": "MCF7", "assay": "In vitro proliferation / cytotoxic assay on breast cancer cells (Examples 14, 25)", "conditions": "MCF7"}, "stimulated PBMC [2]": {"system": "stimulated PBMC", "assay": "IC50 on stimulated (actively dividing) PBMC", "format": "cell-based, human", "conditions": "PBMC Stim; Table IV"}, "MiaPaca2 (AR low)": {"system": "MiaPaca2 (AR low)", "assay": "ATP-dependent proliferation assay with 10 nM DHT, pancreatic cancer cells (Examples 3, 4, 7)", "conditions": "for TI on Resting PBMC: IC50 resting PBMC / IC50 MiaPaca2; for TI on Stimulated PBMC: IC50 stimulated PBMC / IC50 MiaPaca2; for IC50: MiaPaca2", "procedure": "(§6) The experimental method consisted of: • 1. […] After 24 hrs, 10 nM DHT (dihydrotestosterone) with or without anti-androgen compounds, or DMSO vehicle (negative control) was added to the cultures. • 3.\n(§7) Data from Experiment 1 were fitted through sigmoidal dose response curves and analyzed using Prizm statistical analysis software. […] The results from 2 sets of experiments follow.\n(§8) Data from Experiment 1 was fitted through sigmoidal dose response curves and analyzed using Prizm statistical analysis software."}, "Panc1 (AR+)": {"system": "Panc1 (AR+)", "assay": "ATP-dependent proliferation assay with 10 nM DHT, pancreatic cancer cells (Examples 3, 4, 7)", "conditions": "for TI on Resting PBMC: IC50 resting PBMC / IC50 Panc1; for TI on Stimulated PBMC: IC50 stimulated PBMC / IC50 Panc1; for IC50: Panc1", "procedure": "as §6, §7, §8"}, "BxPC3": {"system": "BxPC3", "assay": "In vitro proliferation, larger panel (Example 14)", "conditions": "BxPC3", "excerpt": "as §5"}, "[3]": {"conditions": "Experiment 1, sigmoidal dose response fit, 10 nM DHT, 3 days"}, "[4]": {"conditions": "Experiment 2, nonlinear regression least squares fit, additional experiments"}, "[5]": {"conditions": "Tables I and II, titrated 3 uM to 200 uM, 3 days"}, "[6]": {"conditions": "read-out: In vitro proliferation IC50, Table IV"}, "[7]": {"conditions": "Experiment 1, 0 = higher toxicity in PBMC"}}, "note": "Read-outs that look alike come from different tables or passages of the source.", "data": [{"smiles": "CCCCC(=O)O[C@]1(C(=O)COC(=O)CC)CC[C@H]2[C@@H]3CCC4=CC(=O)CC[C@]4(C)[C@H]3CC[C@@]21C", "note": "[CB-03-10, cortexolone 17α-valerate-21-propionate]", "values": [{"measurement": "IC50", "setting": "stimulated PBMC [1]; Example 7, Experiment 1, read-out: IC50 on Stimulated PBMC", "value": 106, "unit": "µM"}, {"measurement": "IC50", "setting": "stimulated PBMC [1]; Example 7, Experiment 2, read-out: IC50 on Stimulated PBMC", "value": 94, "unit": "µM"}, {"measurement": "IC50", "setting": "stimulated PBMC [1]; PBMC STIMULATED, Table IV, read-out: In vitro proliferation IC50", "value": 94, "unit": "µM"}, {"measurement": "IC50", "setting": "LNCaP (AR+); [3]", "value": 13, "unit": "µM"}, {"measurement": "IC50", "setting": "LNCaP (AR+); [4]", "value": 10, "unit": "µM"}, {"measurement": "IC50", "setting": "PC3 (AR−); [3]", "value": 55, "unit": "µM"}, {"measurement": "IC50", "setting": "PC3 (AR−); [4]", "value": 50, "unit": "µM"}, {"measurement": "Therapeutic Index = IC50 stimulated PBMC/IC50 cancer cell, AVERAGE", "setting": "7 cancer cell lines", "value": 4}, {"measurement": "Therapeutic Index = IC50 resting PBMC/IC50 cancer cell", "setting": "PC3; Table IV", "value": 2}, {"measurement": "Therapeutic Index = IC50 stimulated PBMC/IC50 cancer cell", "setting": "PC3; Table VII", "value": 2}, {"measurement": "IC50", "setting": "PC3; [5]", "value": 53, "unit": "µM"}, {"measurement": "IC50", "setting": "PC3; [6]", "value": 53, "unit": "µM"}, {"measurement": "Therapeutic Index = IC50 resting PBMC/IC50 cancer cell", "setting": "MiaPaca2; Table IV", "value": 3}, {"measurement": "Therapeutic Index = IC50 stimulated PBMC/IC50 cancer cell", "setting": "MiaPaca2; Table VII", "value": 3}, {"measurement": "IC50", "setting": "MiaPaca2; [5]", "value": 37, "unit": "µM"}, {"measurement": "IC50", "setting": "MiaPaca2; [6]", "value": 37, "unit": "µM"}, {"measurement": "Therapeutic Index = IC50 resting PBMC/IC50 cancer cell", "setting": "Panc1; Table IV", "value": 2}, {"measurement": "Therapeutic Index = IC50 stimulated PBMC/IC50 cancer cell", "setting": "Panc1; Table VII", "value": 2}, {"measurement": "IC50", "setting": "Panc1; [5]", "value": 60, "unit": "µM"}, {"measurement": "IC50", "setting": "Panc1; [6]", "value": 60, "unit": "µM"}, {"measurement": "Therapeutic Index = IC50 resting PBMC/IC50 cancer cell", "setting": "LNCaP; Table IV", "value": 9}, {"measurement": "Therapeutic Index = IC50 stimulated PBMC/IC50 cancer cell", "setting": "LNCaP; Table VII", "value": 9}, {"measurement": "IC50", "setting": "LNCaP; [5]", "value": 10, "unit": "µM"}, {"measurement": "IC50", "setting": "LNCaP; [6]", "value": 10, "unit": "µM"}, {"measurement": "Inhibition (%) on HT29", "setting": "HT29; 0.8 micromolar, 72 h", "value": 0.44, "unit": "%"}, {"measurement": "Inhibition (%) on HT29", "setting": "HT29; 4 micromolar, 72 h", "value": 14.23, "unit": "%"}, {"measurement": "Inhibition (%) on HT29", "setting": "HT29; 20 micromolar, 72 h", "value": 25.49, "unit": "%"}, {"measurement": "Inhibition (%) on HT29", "setting": "HT29; 100 micromolar, 72 h", "value": 89.77, "unit": "%"}, {"measurement": "Inhibition (%) on HT29", "setting": "HT29; 500 micromolar, 72 h", "value": 92.10, "unit": "%"}, {"measurement": "IC50", "setting": "HT29; HT29, MTT, 72 h, read-out: IC50 Calculated", "value": 34.2, "unit": "µM"}, {"measurement": "Therapeutic Index = IC50 resting PBMC/IC50 cancer cell", "setting": "HT29; HT29, Table IV", "value": 3}, {"measurement": "IC50", "setting": "HT29; HT29, Table IV, read-out: In vitro proliferation IC50", "value": 34, "unit": "µM"}, {"measurement": "Therapeutic Index = IC50 stimulated PBMC/IC50 cancer cell", "setting": "HT29; HT29, Table VII", "value": 3}, {"measurement": "Therapeutic Index (TI), Resting PBMC", "setting": "HT29; Experiment 1", "value": 3}, {"measurement": "Therapeutic Index (TI), Resting PBMC", "setting": "HT29; Experiment 2", "value": 4}, {"measurement": "Therapeutic Index (TI), Stimulated PBMC", "setting": "HT29; Experiment 1", "value": 3}, {"measurement": "Therapeutic Index (TI), Stimulated PBMC", "setting": "HT29; Experiment 2", "value": 3}, {"measurement": "Therapeutic Index = IC50 resting PBMC/IC50 cancer cell", "setting": "MCF7; Table IV", "value": 3}, {"measurement": "Therapeutic Index = IC50 stimulated PBMC/IC50 cancer cell", "setting": "MCF7; Table VII", "value": 3}, {"measurement": "IC50", "setting": "MCF7; [6]", "value": 28, "unit": "µM"}, {"measurement": "Therapeutic Index = IC50 resting PBMC/IC50 cancer cell", "setting": "stimulated PBMC [2]", "value": 1}, {"measurement": "TI on Resting PBMC", "setting": "MiaPaca2 (AR low); [7]", "value": 3}, {"measurement": "TI on Resting PBMC", "setting": "MiaPaca2 (AR low); Experiment 2", "value": 3}, {"measurement": "TI on Stimulated PBMC", "setting": "MiaPaca2 (AR low); [7]", "value": 3}, {"measurement": "TI on Stimulated PBMC", "setting": "MiaPaca2 (AR low); Experiment 2", "value": 3}, {"measurement": "IC50", "setting": "MiaPaca2 (AR low); Example 7, Experiment 1", "value": 34, "unit": "µM"}, {"measurement": "IC50", "setting": "MiaPaca2 (AR low); Example 7, Experiment 2", "value": 37, "unit": "µM"}, {"measurement": "IC50", "setting": "MiaPaca2 (AR low); [3]", "value": 43, "unit": "µM"}, {"measurement": "IC50", "setting": "MiaPaca2 (AR low); [4]", "value": 37, "unit": "µM"}, {"measurement": "TI on Resting PBMC", "setting": "Panc1 (AR+); [7]", "value": 2}, {"measurement": "TI on Resting PBMC", "setting": "Panc1 (AR+); Experiment 2", "value": 2}, {"measurement": "TI on Stimulated PBMC", "setting": "Panc1 (AR+); [7]", "value": 2}, {"measurement": "TI on Stimulated PBMC", "setting": "Panc1 (AR+); Experiment 2", "value": 2}, {"measurement": "IC50", "setting": "Panc1 (AR+); Example 7, Experiment 1", "value": 68, "unit": "µM"}, {"measurement": "IC50", "setting": "Panc1 (AR+); Example 7, Experiment 2", "value": 60, "unit": "µM"}, {"measurement": "IC50", "setting": "Panc1 (AR+); [3]", "value": 66, "unit": "µM"}, {"measurement": "IC50", "setting": "Panc1 (AR+); [4]", "value": 60, "unit": "µM"}, {"measurement": "Therapeutic Index = IC50 resting PBMC/IC50 cancer cell", "setting": "BxPC3; Table IV", "value": 3}, {"measurement": "Therapeutic Index = IC50 stimulated PBMC/IC50 cancer cell", "setting": "BxPC3; Table VII", "value": 3}, {"measurement": "IC50", "setting": "BxPC3; [6]", "value": 30, "unit": "µM"}]}]}
